Laboratory results taken from ChEMBL document CHEMBL2010711, “Synthesis and comparative evaluation of 4-oxa- and 4-aza-podophyllotoxins as antiproliferative microtubule destabilizing agents” (Bioorg Med Chem Lett, 2012).
Active and inactive are the calls of the source.

Key:
[1] = tested on: UO-31; assay: Cytotoxicity against human UO31 cells after 48 hrs by trypan blue dye exclusion assay; assay type: functional; conditions: UO-31, 48 h
[2] = tested on: MDA-MB-468; assay: Cytotoxicity against human MDA-MB-468 cells after 48 hrs by trypan blue dye exclusion assay; assay type: functional; conditions: MDA-MB-468, 48 h
[3] = Cytotoxicity against human Hs 578T cells after 48 hrs by trypan blue dye exclusion assay; assay type: functional
[4] = tested on: NCI-H226; assay: Cytotoxicity against human NCI-H226 cells after 48 hrs by trypan blue dye exclusion assay; assay type: functional; conditions: NCI-H226, 48 h
[5] = tested on: CCRF-CEM; assay: Cytotoxicity against human CCRF-CEM cells after 48 hrs by trypan blue dye exclusion assay; assay type: functional
[6] = tested on: RPMI-8226; assay: Cytotoxicity against human RPMI8226 cells after 48 hrs by trypan blue dye exclusion assay; assay type: functional; conditions: RPMI-8226, 48 h
[7] = tested on: SK-OV-3; assay: Cytotoxicity against human SKOV3 cells after 48 hrs by trypan blue dye exclusion assay; assay type: functional; conditions: SK-OV-3, 48 h
[8] = tested on: NCI-H23; assay: Cytotoxicity against human NCI-H23 cells after 48 hrs by trypan blue dye exclusion assay; assay type: functional; conditions: NCI-H23, 48 h
[9] = tested on: BT-549; assay: Cytotoxicity against human BT549 cells after 48 hrs by trypan blue dye exclusion assay; assay type: functional; conditions: BT-549, 48 h
[10] = tested on: HCT-15; assay: Cytotoxicity against human HCT15 cells after 48 hrs by trypan blue dye exclusion assay; assay type: functional; conditions: HCT-15, 48 h
[11] = tested on: EKVX; assay: Cytotoxicity against human EKVX cells after 48 hrs by trypan blue dye exclusion assay; assay type: functional
[12] = tested on: SN12C; assay: Cytotoxicity against human SN12C cells after 48 hrs by trypan blue dye exclusion assay; assay type: functional
[13] = tested on: Paracentrotus lividus; assay: Antimitotic activity against Paracentrotus lividus embryo assessed as concentration required to cause 100% cleavage alteration after 2.5 to 6 hrs; assay type: functional
[14] = tested on: HCC 2998; assay: Cytotoxicity against human HCC2998 cells after 48 hrs by trypan blue dye exclusion assay; assay type: functional; conditions: HCC 2998, 48 h
[15] = tested on: K562; assay: Cytotoxicity against human K562 cells after 48 hrs by trypan blue dye exclusion assay; assay type: functional; conditions: K562, 48 h
[16] = tested on: SK-MEL-28; assay: Cytotoxicity against human SK-MEL-28 cells after 48 hrs by trypan blue dye exclusion assay; assay type: functional; conditions: SK-MEL-28, 48 h
[17] = tested on: HCT-116; assay: Cytotoxicity against human HCT116 cells after 48 hrs by trypan blue dye exclusion assay; assay type: functional; conditions: HCT-116, 48 h
[18] = tested on: COLO 205; assay: Cytotoxicity against human COLO205 cells after 48 hrs by trypan blue dye exclusion assay; assay type: functional; conditions: COLO 205, 48 h
[19] = tested on: OVCAR-8; assay: Cytotoxicity against human OVCAR8 cells after 48 hrs by trypan blue dye exclusion assay; assay type: functional; conditions: OVCAR-8, 48 h
[20] = tested on: Malme-3M; assay: Cytotoxicity against human MALME-3M cells after 48 hrs by trypan blue dye exclusion assay; assay type: functional
[21] = tested on: DU-145; assay: Cytotoxicity against human DU145 cells after 48 hrs by trypan blue dye exclusion assay; assay type: functional; conditions: DU-145, 48 h
[22] = tested on: SK-MEL-5; assay: Cytotoxicity against human SK-MEL-5 cells after 48 hrs by trypan blue dye exclusion assay; assay type: functional; conditions: SK-MEL-5, 48 h
[23] = tested on: SW-620; assay: Cytotoxicity against human SW620 cells after 48 hrs by trypan blue dye exclusion assay; assay type: functional; conditions: SW-620, 48 h
[24] = tested on: IGROV-1; assay: Cytotoxicity against human IGROV1 cells after 48 hrs by trypan blue dye exclusion assay; assay type: functional; conditions: IGROV-1, 48 h
[25] = tested on: HOP-62; assay: Cytotoxicity against human HOP62 cells after 48 hrs by trypan blue dye exclusion assay; assay type: functional; conditions: HOP-62, 48 h
[26] = tested on: HL-60(TB); assay: Cytotoxicity against human HL-60(TB) cells after 48 hrs by trypan blue dye exclusion assay; assay type: functional; conditions: HL-60, 48 h
[27] = tested on: OVCAR-5; assay: Cytotoxicity against human OVCAR5 cells after 48 hrs by trypan blue dye exclusion assay; assay type: functional; conditions: OVCAR-5, 48 h
[28] = tested on: U-251; assay: Cytotoxicity against human U251 cells after 48 hrs by trypan blue dye exclusion assay; assay type: functional; conditions: U-251, 48 h
[29] = tested on: NCI-H322M; assay: Cytotoxicity against human NCI-H322M cells after 48 hrs by trypan blue dye exclusion assay; assay type: functional
[30] = tested on: SK-MEL-2; assay: Cytotoxicity against human SK-MEL-2 cells after 48 hrs by trypan blue dye exclusion assay; assay type: functional; conditions: SK-MEL-2, 48 h
[31] = tested on: TK-10; assay: Cytotoxicity against human TK10 cells after 48 hrs by trypan blue dye exclusion assay; assay type: functional; conditions: TK-10, 48 h
[32] = tested on: SNB-19; assay: Cytotoxicity against human SNB19 cells after 48 hrs by trypan blue dye exclusion assay; assay type: functional; conditions: SNB-19, 48 h
[33] = tested on: KM12; assay: Cytotoxicity against human KM12 cells after 48 hrs by trypan blue dye exclusion assay; assay type: functional; conditions: KM12, 48 h
[34] = tested on: A549; assay: Cytotoxicity against human A549 cells after 48 hrs by trypan blue dye exclusion assay; assay type: functional; conditions: A549, 48 h
[35] = tested on: LOX IMVI; assay: Cytotoxicity against human LOXIMVI cells after 48 hrs by trypan blue dye exclusion assay; assay type: functional
[36] = tested on: SF-268; assay: Cytotoxicity against human SF268 cells after 48 hrs by trypan blue dye exclusion assay; assay type: functional; conditions: SF-268, 48 h
[37] = tested on: Paracentrotus lividus; assay: Antimitotic activity against Paracentrotus lividus embryo assessed as concentration required to cause 100% cleavage arrest after 2.5 to 6 hrs; assay type: functional
[38] = tested on: PC-3; assay: Cytotoxicity against human PC3 cells after 48 hrs by trypan blue dye exclusion assay; assay type: functional; conditions: PC-3, 48 h
[39] = tested on: CAKI-1; assay: Cytotoxicity against human CAKI-1 cells after 48 hrs by trypan blue dye exclusion assay; assay type: functional; conditions: CAKI-1, 48 h
[40] = tested on: HOP-92; assay: Cytotoxicity against human HOP92 cells after 48 hrs by trypan blue dye exclusion assay; assay type: functional; conditions: HOP-92, 48 h
[41] = tested on: HT-29; assay: Cytotoxicity against human HT-29 cells after 48 hrs by trypan blue dye exclusion assay; assay type: functional; conditions: HT-29, 48 h
[42] = tested on: ACHN; assay: Cytotoxicity against human ACHN cells after 48 hrs by trypan blue dye exclusion assay; assay type: functional
[43] = tested on: OVCAR-3; assay: Cytotoxicity against human OVCAR3 cells after 48 hrs by trypan blue dye exclusion assay; assay type: functional; conditions: OVCAR-3, 48 h
[44] = tested on: SNB-75; assay: Cytotoxicity against human SNB75 cells after 48 hrs by trypan blue dye exclusion assay; assay type: functional; conditions: SNB-75, 48 h
[45] = tested on: NCI-H522; assay: Cytotoxicity against human NCI-H522 cells after 48 hrs by trypan blue dye exclusion assay; assay type: functional; conditions: NCI-H522, 48 h
[46] = tested on: Paracentrotus lividus; assay: Microtubule destabilizing activity in Paracentrotus lividus embryo assessed as embryo spinning at 2 fold less effective threshold concentration after 15 mins to 20 hrs; assay type: functional, organism-based
[47] = tested on: 786-0; assay: Cytotoxicity against human 786-0 cells after 48 hrs by trypan blue dye exclusion assay; assay type: functional; conditions: 786-0, 48 h
[48] = tested on: NCI/ADR-RES; assay: Cytotoxicity against human NCI/ADR-RES cells after 48 hrs by trypan blue dye exclusion assay; assay type: functional
[49] = tested on: Paracentrotus lividus; assay: Antimitotic activity against Paracentrotus lividus embryo assessed as cleavage alteration at 2 fold less effective threshold concentration after 2.5 to 6 hrs; assay type: functional, organism-based
[50] = tested on: OVCAR-4; assay: Cytotoxicity against human OVCAR4 cells after 48 hrs by trypan blue dye exclusion assay; assay type: functional; conditions: OVCAR-4, 48 h

Work on `COc1ccc2c(c1)OC1=C(C(=O)OC1)C2c1cc(OC)c2c(c1)OCO2` (configuration not stated) yielded a GI50 [1] of 57.6 nM, a GI50 [2] of 26.3 nM and a GI50 [3] of 30.8 nM. The GI50 [4] was 33.4 nM, the GI50 [5] was 37 nM and the GI50 [6] was 48.5 nM. For the same compound, the GI50 [7] was 29.3 nM, the GI50 [8] was 23.5 nM and the GI50 [9] was 107 nM. It also gave a GI50 [10] of 47.5 nM, a GI50 [11] of 77.8 nM and a GI50 [12] of 62.5 nM. For the same compound, the EC [13] was 2 nM, the GI50 [14] was 42.1 nM and the GI50 [15] was 33 nM. For the same compound, the GI50 [16] was 34.2 nM, the GI50 [17] was 37.4 nM and the GI50 [18] was 27.8 nM. For the same compound, the TGI [18] was 69.2 nM, the GI50 [19] was 55.6 nM and the GI50 [20] was > 100000 nM. It also gave a GI50 [21] of 35.2 nM, a GI50 [22] of 36.9 nM and a GI50 [23] of 39.2 nM. The GI50 [24] was 62.4 nM, the GI50 [25] was 34.9 nM and the GI50 [26] was 30.3 nM. For the same compound, the GI50 [27] was 153 nM, the GI50 [28] was 42.7 nM and the GI50 [29] was 71.3 nM. For the same compound, the GI50 [30] was 34.3 nM, the GI50 [31] was 268 nM and the GI50 [32] was 47.9 nM. It also gave a GI50 [33] of 29.6 nM, a GI50 [34] of 44.4 nM and a GI50 [35] of 69.1 nM. The GI50 [36] was 78 nM, the EC [37] was 10 nM and the GI50 [38] was 40.9 nM. For the same compound, the GI50 [39] was 58 nM, the GI50 [40] was 73000 nM and the GI50 [41] was 33.1 nM. For the same compound, the GI50 [42] was 267 nM, the GI50 [43] was 20.9 nM and the TGI [43] was 44.6 nM. The GI50 [44] was 13.9 nM, the GI50 [45] was < 10 nM and the Activity [46] was “inactive”. For the same compound, the GI50 [47] was 51.4 nM, the GI50 [48] was 18.6 nM and the Activity [49] was “inactive”. For the same compound, the GI50 [50] was 59.8 nM.
